Test results: patent publication US9307761B2, “Microbial composition” (Rohm and Haas Company, priority 2011, dated 2016)

Key:
Format in all cases: cell-based
[1] = test system: Escherichia coli (10536 strain); test: 15 seconds contact kill assay of actives in water, mean bacterial survival NMBS; settings: E. coli; for NMBS: alone, 15 seconds contact
[2] = test system: Escherichia coli (E. coli—ATCC #10536); test: Automated assessment of efficacy in model surfactant medium (2.85% sodium cocoyl glycinate and 1.85% sodium lauroamphoacetate), 15 seconds exposure, delta OD450/OD590; settings: for No. of replicates showing growth (out of 4) / Δ OD 450 nm = OD450 (time = 16 hours) − OD450 (time zero), Mean / Δ OD 590 nm OD590 (time = 16 hours) − OD590 (time zero), Mean: 15 s exposure
Description: Micobiocidal Activity of Actives as Per the Invention in a Model Surfactant Medium Test Methodology for Automated Assessment of Efficacy in Surfactant Base
Solutions were prepared such that the concentrations of the surfactant components and test actives were 1.1×the final desired concentration in order to allow for dilution with the bacterial inoculum in the test. The solutions were manually adjusted to […] by dropwise addition of sodium hydroxide solution, as measured with a pH meter at ambient temperature.
Tests were conducted using standard microtiter plate assays using an automated liquid handling system, 270 μl of the surfactant test solution was pipetted into each well of the microtitre plate and 30 μl of the bacterial suspension was then added. After exactly 15 seconds of bacterial exposure, a 30 μl volume of bacterial cells was withdrawn and transferred to 270 μl of D/E quench solution. After 5 minutes in the D/E quench, the optical density (OD) was measured for each plate in turn at two specific wavelengths (450 nm and 590 nm). These provide a dual check of antimicrobial activity, as the OD450 reading is specific for the yellow colour of D/E quench when bacterial growth is observed, whereas OD590 is specific for the initial purple colour of the D/E quench which is retained if no bacterial growth is observed. After the time zero OD measurements, plates were then incubated at 37° C. overnight (16 hours) before repeating the OD measurements. Delta OD values were calculated by subtracting […]. Bacterial growth is observed as art increase in OD450 and a decrease in ΔOD590. To identify antibacterially efficacious systems (those preventing appreciable bacterial growth after incubation), the following threshold changes in OD readings have been adopted: if (1). OD450 increases by less than 0.2 absorbance unit on incubation and (2). OD590 decreases by less than 0.35 unit on incubation. Conversely, where OD450 increases by more than 0.2 AU and OD590 decreases by more than 0.35 unit after incubation, corresponding to a colour shift from purple to yellow, the test system allows bacterial growth and is not deemed efficacious, four replicate measurements in the same plate have been made for each test system. The number of replicate wells showing either bacterial growth or no growth is also readily assessed by eye by following the colour change.
Dose responses for individual components and binary mixtures of actives at a fixed concentration ratio were generated by sequential dilution of liquors with further surfactant solution to obtain a series of endpoints.
In some selected cases, the combinations were also tested at the weight ratio 1:1.

[3] = test system: Staphylococcus aureus (10788 strain); test: Antimicrobial efficacy of actives against S. aureus in water, 15 seconds contact; settings: for MBC (minimum biocidal concentration): against S. Aureus, in water; for NMBS: S. aureus
S. aureus = test: Synergy of terpinyl alcohols with phenolic compounds in water against S. aureus, log reduction after 15 seconds contact
Description: The procedure used was as follows:
Liquid actives were used directly. Solid actives were dissolved in alcohol and a 50% stock was made.
Preparation of Test Cultures:
The culture was grown overnight in Tryptone soya agar.
To 9 ml water the actives were added to give the desired concentration. 1 ml of the culture was added and mixed. After 15 seconds contact 1 ml aliquot was removed and added to a neutraliser and kept for 5 minutes. A control of untreated cells was similarly processed. It was then diluted and plated. The plates were incubated at 37° C. for 24 hours. The colonies on the plates were counted. The counts were converted to log10. The log no. of survivors was determined and log reduction calculated.

[4] = test system: Escherichia coli (E. coli—ATCC #10536); test: Synergy tests: high resolution MBC microtiter plate assay, 15 seconds contact, phosphate buffer containing […] dipropylene glycol; settings: E. coli 10536; at Qa and Qb; <1 synergy, 1 additivity, >1 antagonism
From the text: The concentrations and ratios may also vary under different test conditions or with different test methods.
One measure of synergy is the industrially accepted method described by Kull, F. C.; Eisman, P. C.; Sylwestrowicz, H. D. and Mayer, R. L., in Applied Microbiology 9:538-541 (1961), using the ratio determined by the formula: Qa/QA+Qb/QB=Synergy Index (“SI”) wherein: • QA=concentration of compound A (first component) in percent, acting alone, which produced an end point (MBC of Compound A). • Qa=concentration of compound A in percent, in the mixture, which produced an end point. • QB=concentration of compound B (second component) in percent, acting alone, which produced an end point (MBC of Compound B). • Qb=concentration of compound B in percent, in the mixture, which produced an end point.
When the sum of Qa/QA and Qb/QB is greater than one, antagonism is indicated. […] The lower the SI, the greater is the synergy shown by that particular mixture. The minimum biocidal concentration (MBC) of a microbicide is the lowest concentration tested under a specific set of conditions that provides complete kill of the tested microorganisms.
Synergy tests were conducted using standard microtiter plate assays with phosphate buffer containing 3.5% dipropylene glycol (DPG). In this method, a wide range of combinations of chemicals was tested by conducting high resolution MBC assays of Component (A) in the presence of various concentrations of Component (B). High resolution MBCs were determined by adding varying amounts of microbicide to one column of a microtiter plate and doing subsequent […] dilutions using an automated liquid handling system to obtain a series of closely spaced endpoints. The MBC plate was inoculated one column at a time with the test microorganism. An aliquot of the inoculated well was transferred at 15 seconds to a plate containing a neutralizing agent (D/E Neutralizing Broth), mixed and held for 5 minutes before being transferred to a growth plate containing trypticase soy broth (TSB). The TSB plate was incubated at 37° C. and read for the presence/absence of growth at 24 hours. The lowest level tested that provided complete kill (as evidenced by no growth in the microtitre plate) of the test organisms in 15 seconds is the minimum biocidal concentration (MBC).
The synergy of the combinations of the present invention was determined against a bacterium, Escherichia coli (E. coli—ATCC #10536), at a concentration of approximately 1×10^8 bacteria, per mL. This microorganism is representative of natural contaminants in many consumer and industrial applications.

[5] = single active alone at 0.05% w/v, model surfactant solution
[6] = single active alone at 0.1% w/v, model surfactant solution
[7] = single active alone at […] w/v, model surfactant solution
[8] = single active alone at 0.125% w/v, water

**Q.** With `CCCc1ccccc1O` [2-n-propylphenol] as the compound, how does the NMBS ([1]; 0.05% w/v) read?
**A.** Its NMBS is 7.71 log CFU/ml.

**Q.** What about the NMBS ([1]; 0.125% w/v) of the same compound?
**A.** The NMBS was 0 log CFU/ml.

**Q.** And the “MBC (minimum biocidal concentration)” value ([1]; in water, component alone)?
**A.** The value was 0.125 % w/v.

**Q.** What about the NMBS ([1]; […] w/v) of the same compound?
**A.** The NMBS was 0 log CFU/ml.

**Q.** And the “No. of replicates showing growth (out of 4)” value [2, 5]?
**A.** The value was 4.

**Q.** What about the “Δ OD 450 nm = OD450 (time = 16 hours) − OD450 (time zero), Mean” value (shortened to “Δ OD 450 nm = OD450”) [2, 5] of the same compound?
**A.** Its value is −1.43.

**Q.** What about the “Δ OD 590 nm OD590 (time = 16 hours) − OD590 (time zero), Mean” value (“Δ OD 590 nm OD590” for short) [2, 5] of the same compound?
**A.** Its value is 0.46.

**Q.** And the “No. of replicates showing growth (out of 4)” value [2, 6]?
**A.** Its value is 4.

**Q.** What about the “Δ OD 450 nm = OD450” value [2, 6] of the same compound?
**A.** The value was −1.42.

**Q.** And the “Δ OD 590 nm OD590” value [2, 6]?
**A.** The value was 0.46.

**Q.** And the “No. of replicates showing growth (out of 4)” value [2, 7]?
**A.** Its value is 4.

**Q.** And the “Δ OD 450 nm = OD450” value [2, 7]?
**A.** Its value is −1.15.

**Q.** And the “Δ OD 590 nm OD590” value [2, 7]?
**A.** Its value is 0.66.

**Q.** What about the “MBC (minimum biocidal concentration)” value [3] of the same compound?
**A.** The value was 0.25 % w/v.

**Q.** And the MBC of phenol ([3]; phenol alone, complete bacterial kill against S. aureus, water)?
**A.** Its MBC of phenol is 0.25 % (w/v).

**Q.** What about the NMBS ([3]; single active alone at 0.1% w/v, water) of the same compound?
**A.** The NMBS was 7.30 log CFU/ml.

**Q.** And the NMBS [3, 8]?
**A.** Its NMBS is 7.19 log CFU/ml.

**Q.** And the NMBS ([3]; single active alone at […] w/v, water)?
**A.** Its NMBS is 0 log CFU/ml.

**Q.** With `CCC(C)c1ccc(O)cc1` (centres unmarked) [4-sec butyl phenol] as the compound, how does the “Log reduction S. aureus ATCC 6538” value (S. aureus; phenolic compound alone at 0.05%) read?
**A.** Its value is 0.0.

**Q.** Which results are given for `C=C(C)[C@@H]1CC=C(CO)CC1` [(4S)-(4-(prop-1-en-2-yl)cyclohex-1-enyl)methanol]?
**A.** MBC ([2]; Escherichia coli, ATCC10536, 15 s, in 2.85% sodium cocoyl glycinate + 1.85% sodium lauroamphoacetate solution at pH 10, E. coli, read-out: MBC (minimum biocidal concentration)): 4000 µg/mL; MBC of terpene alcohol ([2]; terpene alcohol alone, complete bacterial kill against E. coli, model surfactant solution): 0.4 % (w/v); SI (Synergy Index = Qa/QA + Qb/QB) [4]: 1.00; MBC (minimum biocidal concentration) [3]: >1.0 % w/v; NMBS [3, 8]: 7.19 log CFU/ml; NMBS ([3]; single active alone at 0.4% w/v, water): 7.14 log CFU/ml; NMBS ([3]; single active alone at 0.625% w/v, water): 7.15 log CFU/ml; NMBS ([3]; single active alone at 1.0% w/v, water): 7.39 log CFU/ml; MBC of terpene alcohol ([3]; terpene alcohol alone, complete bacterial kill against S. aureus, water): 1.0 % (w/v)

**Q.** With `C=C(C)[C@@H]1CC=C(CO)CC1` [perillyl alcohol] as the compound, how does the “Log reduction S. aureus ATCC 6538” value (S. aureus; terpinyl alcohol alone at […]) read?
**A.** The value was −0.6.
